Experimental data from the NIST ThermoML archive (doi:10.1016/j.jct.2019.06.032).

What was measured:
[1] = 101 kPa, Liquid; for viscosity: Capillary tube (Ostwald / Ubbelohde) method; for mass density: Vibrating tube method
[2] = xn = mol fraction of the nth substance listed; details: 101 kPa, Liquid; for viscosity: Capillary tube (Ostwald / Ubbelohde) method; for mass density: Vibrating tube method

NCCO [2-aminoethan-1-ol]
[1]
Details	mass density [kg/m3]	viscosity [mPa·s]
293.15 K	1016.9	23.79
303.15 K	1009.5	14.83
313.15 K	1001.1	9.89
323.15 K	992.7	6.872
333.15 K	984.3	4.99

CCN(CC)CCO [(diethylamino)ethanol]
[1]
Details	mass density [kg/m3]	viscosity [mPa·s]
293.15 K	891.2	4.848
303.15 K	874.4	3.41
313.15 K	865.4	2.466
323.15 K	856.4	1.855
333.15 K	845.6	1.431

O [water] + NCCO
[2], x2 = 0
Details	mass density [kg/m3]	viscosity [mPa·s]
293.15 K	–	1.004
303.15 K	–	0.813
313.15 K	992.3	0.662
323.15 K	–	0.57
333.15 K	983.3	0.483

O [water] + CCN(CC)CCO
[2], x2 = 0
Details	mass density [kg/m3]	viscosity [mPa·s]
293.15 K	–	1.004
303.15 K	–	0.813
313.15 K	992.3	0.662
323.15 K	–	0.57
333.15 K	983.3	0.483

NCCO [2-aminoethan-1-ol] + CCN(CC)CCO
[2], x1 = 1
Details	mass density [kg/m3]	viscosity [mPa·s]
293.15 K	1016.9	23.79
303.15 K	1009.5	14.83
313.15 K	1001.1	9.89
323.15 K	992.7	6.872
333.15 K	984.3	4.99
